From patent US20010056582A1, “PAIRED MUTATIONS” (priority 1997, published 2001)
Counter-ions that a name gives are not always drawn. Like-named read-outs stand apart in the source and are kept apart here.

Legend:
[1] = test system: post-cell stages of spermatogenesis (male germ cells); details: cited from earlier work; for Lethal/tested mutations: number of lethal mutations among those tested, for chlorambucil includes mutations with evidence for deletion
male mice = test: Sterility of male mice after ENU treatment; type: in vivo
Description: Mutations in the DNA of the premeiotic spermatogonia of male mice can be induced with the DNA alkylating agent ethylnitrosourea (ENU). Typically, 3 separate doses of 100 mg/kg body weight ENU are injected interperitoneally, with each injection separated by a one week interval. The animals undergo a period of sterility (usually 8-14 weeks), after which they can be mated to nonmutagenized females to produce offspring (the F1 generation) which carry heterozygous mutations in their genome (FIG. 1).
Each animal carries the same set of heterozygous mutations throughout both somatic and germ tissue. To generate large numbers of offspring for a paired sample set, 300 males are treated with ENU. Approximately 100 of these mice will be permanently sterile; the remaining 200 are permanently mated with 2 females each. […] In this way a set of paired samples comprised of over 30,000 animals can be produced within a year, including the time required to establish the ENU treated breeding males. The process can be scaled up by ENU treatment and breeding of additional male mice.

zebrafish = details: ENU mutagenesis; cited from earlier work
mice = details: cited from earlier work; for mutation frequency compared with ENU: other chemical mutagens versus ENU (approximately 1 per 1000 mice)
[2] = experimental minus historical control 43/801,406, for period of maximum response, at the listed exposure
[3] = rate relative to exposure in mol per kg body weight

C=CC(N)=O [AA, acrylamide monomer]
Induced mutation rate per locus ([1]; mouse, in vivo): 18.2 × 10^−5 | Induced mutation rate per locus per mol ([1]; mouse, in vivo): 0.1 per mol

O=C(O)CCCc1ccc(N(CCCl)CCCl)cc1 [Chl, chlorambucil]
Induced mutation rate per locus [1, 2]: 127.3 × 10^−5 | Lethal/tested mutations [1]: 1/4 | Induced mutation rate per locus per mol [1, 3]: 38.7 per mol

O=P1(N(CCCl)CCCl)NCCCO1 (stereo not drawn) [Cp, cyclophosphamide]
Induced mutation rate per locus [1, 2]: 24.3 × 10^−5 | Lethal/tested mutations [1]: 3/5 | Induced mutation rate per locus per mol [1, 3]: 0.5 per mol

CCN(N=O)C(N)=O [ENU, N-ethyl-N-nitrosourea]
period of sterility (male mice; male mice, 3 doses of 100 mg/kg ENU interperitoneally at one week intervals): 8-14 weeks | mice permanently sterile (male mice; of 300 males treated with ENU): Approximately 100 mice | Induced mutation rate per locus [1, 2]: 10.6 × 10^−5 | Lethal/tested mutations [1]: 0/5 | Induced mutation rate per locus per mol [1, 3]: 0.2 per mol | locus-specific mutation frequency (zebrafish): 1/1000 | frequency of mutations, determined for numerous genes (mice; for any given gene screened, phenotype-based): 0.5-1.5 mutant mice per 1000 mice | frequency of a mutation in any given gene (mice; offspring of ENU mutagenized male mice, based on phenotypic assays): approximately 1 per 1000 mice

CCOS(=O)(=O)OCC [Et2SO4, diethyl sulfate]
Induced mutation rate per locus ([1]; mouse, in vivo): 11.2 × 10^−5 | Induced mutation rate per locus per mol ([1]; mouse, in vivo): 0.1 per mol | Lethal/tested mutations [1]: 4/4

CCOS(C)(=O)=O [EtMs, ethyl methanesulforate]
Induced mutation rate per locus [1, 2]: 20.9 × 10^−5 | Lethal/tested mutations [1]: 0/1 | Induced mutation rate per locus per mol [1, 3]: 0.1 per mol

CN(N=O)C(N)=O [MNU, N-methyl N-nitrosourea]
Induced mutation rate per locus [1, 2]: 90.2 × 10^−5 | Lethal/tested mutations [1]: 0/17 | Induced mutation rate per locus per mol [1, 3]: 1.2 per mol | mutation frequency compared with ENU (mice): same type of mutation frequency

COS(C)(=O)=O [MeMs, methyl methanesulforate]
Induced mutation rate per locus [1, 2]: 24.0 × 10^−5 | Lethal/tested mutations [1]: 10/14 | Induced mutation rate per locus per mol [1, 3]: 0.7 per mol | mutation frequency compared with ENU (mice): same type of mutation frequency

CNNCc1ccc(C(=O)NC(C)C)cc1.Cl [Pre, phocarbazine hydrochloride]
Induced mutation rate per locus [1, 2]: 21.6 × 10^−5 | Induced mutation rate per locus per mol [1, 3]: 0.1 per mol | mutation frequency compared with ENU (mice): same type of mutation frequency
